The source of these data is patent publication US20150087969A1, “SYSTEMS AND METHODS FOR OPTICALLY GUIDED PLACEMENT AND MONITORING OF MEDICAL IMPLANTS” (Children's National Medical Center, priority 2013, published 2015).

Data set [1] can be described thus: Thermal degradation by thermogravimetric analysis (TGA). In kind it is physicochemical. The settings on record: TGA in nitrogen gas at 20° C./min (n=3). The method, then: According to an embodiment, aromatic polyether-based medical grade thermoplastic polyurethane (TPU) pellets can be mixed with and without IRDye 800CW to form TPU Composite and Plain TPU using a hydraulic platen press. […] The temperature at which the samples begin to decrease sharply in weight is determined to be their degradation point. According to an embodiment, thermal degradation temperatures are evaluated using a Q50 Thermogravimetric Analyzer (TGA), wherein the analysis is conducted in nitrogen gas at 20° C./min (n=3), where n is the number of times the experiment has been performed.
Furthermore, the degradation temperatures are considerably higher than the processing temperature of TPU (195° C.).

The nature of data set [2]: Stability of IRDye 800CW fluorescent signal in PBS at 37° C. As to conditions: PBS at 37° C. with gentle agitation, 12 days. In kind it is physicochemical. The method, then: According to another embodiment of the disclosure, in order to determine the long-term effect of being implanted in vivo, catheters are leached in phosphate buffered saline powder (PBS) for 23 days to determine the amount of dye retained within the matrix. TPU Composite tubes are cut into thin slices, weighed, and added to a black 96 well plate containing 200 μl PBS. Leaching of IRDye 800CW from the TPU Composite (n=8) is analyzed under physiological conditions (pH ˜7.4, 37° C., with gentle agitation) in a water bath. The water bath is covered to prevent photo-bleaching. Each day, tubes can be transferred to the successive well containing PBS, and the previous day is analyzed using a micro-plate reader with excitation at 765 nm, emission at 794 nm and a sensitivity of 100. […] Further, to determine the amount of IRDye 800CW retained, a calibration curve containing serial dilutions of IRDye 800CW in PBS is used (0 to 0.00030 wt %) (R^2=0.99). Additionally, 10 mL of IRDye 800CW in PBS is placed in the water bath and 100 μL aliquots are analyzed per day for signs of signal degradation due to heat.
The retention analysis of IR Dye 800 CW within TPU matrix of FIG. 17 includes a 6.35% of the IR Dye 800 CW being released from the polymer over 23 days. […]

In data set [3] the test system is Human Umbilical Vein Endothelial (HUVEC) cells. Description: Biocompatibility (toxicity) in direct contact with endothelial cells, alamar blue and Calcein AM/propidium iodide. The class given is cell-based. As to the method: According to another embodiment of disclosure, biocompatibility studies are conducted to determine the toxicity of TPU Composite in direct contact with endothelial cells as well as the adhesion of endothelial cells to the TPU Composite. Pressed films (Plain TPU and TPU Composite) are sterilized by washing in 1×PBS for 24 hours under constant agitation, followed by a 30 minute soak in 100% ethanol and two 1 hour rinses with PBS. Biocompatibility studies include 12 well cell bind plates being seeded with Human Umbilical Vein Endothelial (HUVEC) cells (passage 4-10, cultured in complete endothelial growth medium EGM Bulletkit, LONZA) at a density of 100 cells/cm^2 for 12 hours to allow for adhesion [37° C., 5% CO2]. Films (19 mm) are placed in direct contact to the cells and incubated for an additional 72 hours, replacing media daily. Toxicity is quantitatively analyzed with alamar blue according to manufacturer's protocol. Briefly, 100 μL of alamar blue is added to the media and allowed to incubate for 1.5 hours. Fluorescence of each alamar blue was read at excitation 545 nm, emission 590 nm. Films are removed from wells and cells are stained with Calcein AM and propidium iodide according to manufacturer's protocol, fixed with 4% paraformaldehyde for 1 hour and rinsed three times with PBS for qualitative analysis of cell death. Cells are imaged with fluorescent confocal imaging (Zeiss) for proliferation, morphology changes and viability. The process is repeated with 0.025 wt % IRDye 800CW in media, cells with media as a positive control, and cells with 70% ethanol in media as a negative control.

Data set [4] shares this test system. Description: Endothelial cell adhesion to films. In kind it is cell-based. The settings on record: HUVECs seeded on films, one hour, Calcein AM/propidium iodide. As to the method: To determine if endothelial cells bind to the catheters, 19 mm films are cut and affixed to the bottom of suspension 12-well culture plates with 50 μL of 10 mg/mL collagen Type I isolated from rat tails. Plates are incubated for 30 minutes to allow for collagen polymerization. Films are seeded with 100 cells/cm^2 and incubated for one hour. Wells are washed with PBS to remove non-adherent cells and stained with Calcein AM and propidium iodide to aid in visualization of cell binding. The number and cell health of adherent cells is analyzed with fluorescence microscopy and compared to positive (collagen plates) and negative (Teflon) controls.
In order to be a viable biomaterial, cell adhesion should be minimal in order to avoid excess damage when removing or inserting the PICC.

Molecule `CC1(C)C(=CC=C2CCCC(C=CC3=[N+](CCCCCC(=O)[O-])c4ccc(S(=O)(=O)[O-])cc4C3(C)C)=C2Oc2ccc(S(=O)(=O)[O-])cc2)N(CCCCS(=O)(=O)[O-])c2ccc(S(=O)(=O)[O-])cc21.[Na+].[Na+].[Na+].[Na+]` [IRDye 800CW] yielded a thermal degradation temperature in data set [1] of 308±10 °C. Further, the “fluorescent signal stability in PBS” value in data set [2] is “no observed decrease in the fluorescent signal”. In addition, in data set [3] (0.025 wt % in media, HUVECs, 72 hours, alamar blue, normalized to media control), the “Normalized Viability” value is on record as 91.27 ± 8.54. For the same molecule, in data set [3] (72 hour incubation of HUVECs, IRDye 800CW at 0.025 wt %), the “cell viability (statistics)” value is on record as “no statistical difference”. In addition, the “cell morphology or proliferation rates” value in data set [3] (Calcein AM and Propidium Iodide staining, HUVECs) is on record as “no apparent change”.
In the case of “Collagen I: collagen Type I isolated from rat tails, positive control for cell adhesion”, in data set [4], the “cell adherence (qualitative, cell shape)” value was “preferentially adhered”.
